Experimental findings from ChEMBL document CHEMBL5463725, “Data for DCP probe BAY-277” (2023) are described below.

In series [1] the target is Glutamate NMDA receptor (Rattus norvegicus) (UniProt P35439+Q00959+Q00960+Q00961+Q62645+Q8VHN2+Q9R1M7). As to the kind of experiment: Inhibition of Glutamate, NMDA, Agonism at 10.0 µM in the Eurofins Panlabs Safety Screen. The series is classed as protein-complex assay. To be noted: Compound concentration 10.0 uM.
Series [2] concerns the target Sigma intracellular receptor 2 (Homo sapiens, UniProt Q5BJF2). To be noted: Compound concentration 10.0 uM.
For series [3], the target named is Sodium-dependent noradrenaline transporter (Homo sapiens) (UniProt P23975). The series can be described thus: Inhibition of Transporter, Norepinephrine (NET) at 10.0 µM in the Eurofins Panlabs Safety Screen. The note with it: Compound concentration 10.0 uM.
Series [4] addresses Adenosine receptor A2a (Homo sapiens) (UniProt P29274). As to the kind of experiment: Inhibition of Adenosine A2A at 10.0 µM in the Eurofins Panlabs Safety Screen. The note with it: Compound concentration 10.0 uM.
The target in series [5] is 5-hydroxytryptamine receptor 5A (Homo sapiens) (UniProt P47898). The note with it: Compound concentration 10.0 uM.
The target in series [6] is Sigma non-opioid intracellular receptor 1 (Homo sapiens) (UniProt Q99720). To be noted: Compound concentration 10.0 uM.
Series [7] concerns the target T1, Muscarinic acetylcholine receptor M4 (Homo sapiens) (UniProt P08173).
T1 sequence (whole entry): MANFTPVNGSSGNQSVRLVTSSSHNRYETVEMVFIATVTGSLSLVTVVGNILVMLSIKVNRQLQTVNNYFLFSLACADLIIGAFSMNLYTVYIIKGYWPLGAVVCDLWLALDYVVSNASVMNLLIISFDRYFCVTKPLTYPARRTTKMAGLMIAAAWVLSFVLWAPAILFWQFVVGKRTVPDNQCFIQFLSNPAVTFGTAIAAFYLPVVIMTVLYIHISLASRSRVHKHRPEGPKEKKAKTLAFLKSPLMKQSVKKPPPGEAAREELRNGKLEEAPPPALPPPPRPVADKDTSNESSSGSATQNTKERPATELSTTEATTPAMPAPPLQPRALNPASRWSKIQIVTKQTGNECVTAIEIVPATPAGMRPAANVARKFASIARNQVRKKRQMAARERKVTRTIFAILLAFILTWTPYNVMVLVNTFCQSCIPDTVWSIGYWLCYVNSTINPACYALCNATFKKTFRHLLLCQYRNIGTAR
The series can be described thus: Inhibition of Muscarinic M4 at 10.0 µM in the Eurofins Panlabs Safety Screen. To be noted: Compound concentration 10.0 uM.

The target in series [8] is T2, Alpha-2C adrenergic receptor (Homo sapiens) (UniProt P18825).
T2 sequence (whole entry): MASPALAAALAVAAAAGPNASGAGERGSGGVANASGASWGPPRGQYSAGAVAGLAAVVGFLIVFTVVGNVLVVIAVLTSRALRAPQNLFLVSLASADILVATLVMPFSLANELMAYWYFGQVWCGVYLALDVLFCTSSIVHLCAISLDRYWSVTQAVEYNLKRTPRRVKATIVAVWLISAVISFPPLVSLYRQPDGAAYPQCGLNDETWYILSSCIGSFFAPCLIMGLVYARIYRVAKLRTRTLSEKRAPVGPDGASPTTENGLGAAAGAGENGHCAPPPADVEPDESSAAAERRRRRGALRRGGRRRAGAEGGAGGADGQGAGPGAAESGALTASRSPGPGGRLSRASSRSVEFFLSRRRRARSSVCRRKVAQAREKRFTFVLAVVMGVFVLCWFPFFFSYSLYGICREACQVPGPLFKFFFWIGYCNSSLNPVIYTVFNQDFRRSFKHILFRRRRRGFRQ
To be noted: Compound concentration 10.0 uM.

The target of the next series is D(3) dopamine receptor (Homo sapiens, UniProt P35462). The series can be described thus: Inhibition of Dopamine D3 at 10.0 µM in the Eurofins Panlabs Safety Screen. To be noted: Compound concentration 10.0 uM.
The target in series [9] is Beta-3 adrenergic receptor (Homo sapiens) (UniProt P13945). The note with it: Compound concentration 10.0 uM.
Series [10] deals with Adenosine Transporter (Cavia porcellus) (UniProt H0V4R7+H0UUG1+H0V3Z5). The series can be described thus: Inhibition of Transporter, Adenosine at 10.0 µM in the Eurofins Panlabs Safety Screen. The series is classed as protein assay. To be noted: Compound concentration 10.0 uM.
Series [11] addresses Histamine H4 receptor (Homo sapiens) (UniProt Q9H3N8). The note with it: Compound concentration 10.0 uM.
Series [12] has as its target Sodium-dependent serotonin transporter (Homo sapiens) (UniProt P31645). As to the kind of experiment: Inhibition of Transporter, Serotonin (5-Hydroxytryptamine) (SERT) at 10.0 µM in the Eurofins Panlabs Safety Screen. The note with it: Compound concentration 10.0 uM.
In series [13] the target is Monoamine oxidase B (MAO-B) (Homo sapiens, UniProt P27338). The series can be described thus: Inhibition of Monoamine Oxidase MAO-B at 10.0 µM in the Eurofins Panlabs Safety Screen. To be noted: compound concentration 10 uM.
The target of series [14] is Tyrosine-protein kinase Lck (Homo sapiens) (UniProt P06239). As to the kind of experiment: Inhibition of Lck(h) at 10.0 µM in the Eurofins Kinase panel. To be noted: Compound concentration 10.0 uM.
For series [15], the target named is 5-hydroxytryptamine receptor 2B (Homo sapiens) (UniProt P41595). To be noted: Compound concentration 10.0 uM.
The target of series [16] is Mu-type opioid receptor (Homo sapiens) (UniProt P35372). As to the kind of experiment: Inhibition of Opiate µ(OP3, MOP) at 10.0 µM in the Eurofins Panlabs Safety Screen. To be noted: Compound concentration 10.0 uM.
For series [17], the target named is T3, 5-hydroxytryptamine receptor 1A (Homo sapiens) (UniProt P08908).
T3 sequence (whole entry): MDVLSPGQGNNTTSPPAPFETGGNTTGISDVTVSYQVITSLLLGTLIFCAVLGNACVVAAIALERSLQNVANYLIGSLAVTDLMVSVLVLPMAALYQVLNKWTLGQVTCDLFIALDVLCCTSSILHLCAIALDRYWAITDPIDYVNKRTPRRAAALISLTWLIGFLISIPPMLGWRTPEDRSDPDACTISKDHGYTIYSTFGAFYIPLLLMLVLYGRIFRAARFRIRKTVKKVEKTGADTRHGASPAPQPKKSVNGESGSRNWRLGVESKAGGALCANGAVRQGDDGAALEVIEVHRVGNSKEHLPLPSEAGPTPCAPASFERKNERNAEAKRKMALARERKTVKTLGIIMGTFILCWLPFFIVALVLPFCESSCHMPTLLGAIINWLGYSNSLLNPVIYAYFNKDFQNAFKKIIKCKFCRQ
The series can be described thus: Inhibition of Serotonin (5-Hydroxytryptamine) 5-HT1A at 10.0 µM in the Eurofins Panlabs Safety Screen. The note with it: Compound concentration 10.0 uM.

In series [18] the target is Leukotriene C4 synthase (Cavia porcellus) (UniProt A6XA80). As to the kind of experiment: Inhibition of Leukotriene LTC4 Synthase at 10.0 µM in the Eurofins Panlabs Safety Screen. To be noted: Compound concentration 10.0 uM.
Series [19] addresses D(2) dopamine receptor (Homo sapiens) (UniProt P14416). The note with it: Compound concentration 10.0 uM.
Series [20] shares this target. As to the kind of experiment: Inhibition of Dopamine D2L at 10.0 µM in the Eurofins Panlabs Safety Screen. To be noted: Compound concentration 10.0 uM.
In series [21] the target is Acetylcholinesterase (Homo sapiens) (UniProt P22303). As to the kind of experiment: Inhibition of Cholinesterase, Acetyl, ACES at 10.0 µM in the Eurofins Panlabs Safety Screen. To be noted: Compound concentration 10.0 uM.
Series [22] deals with Glucocorticoid receptor (Homo sapiens) (UniProt P04150). The series can be described thus: Inhibition of Glucocorticoid at 10.0 µM in the Eurofins Panlabs Safety Screen. The note with it: Compound concentration 10.0 uM.

Sequence of Beta-3 adrenergic receptor (Homo sapiens) (P13945 whole entry, looked up): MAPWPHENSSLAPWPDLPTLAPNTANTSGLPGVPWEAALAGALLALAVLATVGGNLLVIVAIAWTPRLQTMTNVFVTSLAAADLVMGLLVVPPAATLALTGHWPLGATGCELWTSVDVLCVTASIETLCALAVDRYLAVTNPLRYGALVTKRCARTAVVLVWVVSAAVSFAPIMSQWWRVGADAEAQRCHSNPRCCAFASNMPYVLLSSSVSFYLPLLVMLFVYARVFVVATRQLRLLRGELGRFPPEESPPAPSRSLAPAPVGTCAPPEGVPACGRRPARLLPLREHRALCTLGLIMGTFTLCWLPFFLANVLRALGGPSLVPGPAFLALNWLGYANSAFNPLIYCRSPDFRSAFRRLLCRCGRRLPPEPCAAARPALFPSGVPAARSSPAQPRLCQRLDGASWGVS
Sequence of 5-hydroxytryptamine receptor 2B (Homo sapiens) (P41595 whole entry): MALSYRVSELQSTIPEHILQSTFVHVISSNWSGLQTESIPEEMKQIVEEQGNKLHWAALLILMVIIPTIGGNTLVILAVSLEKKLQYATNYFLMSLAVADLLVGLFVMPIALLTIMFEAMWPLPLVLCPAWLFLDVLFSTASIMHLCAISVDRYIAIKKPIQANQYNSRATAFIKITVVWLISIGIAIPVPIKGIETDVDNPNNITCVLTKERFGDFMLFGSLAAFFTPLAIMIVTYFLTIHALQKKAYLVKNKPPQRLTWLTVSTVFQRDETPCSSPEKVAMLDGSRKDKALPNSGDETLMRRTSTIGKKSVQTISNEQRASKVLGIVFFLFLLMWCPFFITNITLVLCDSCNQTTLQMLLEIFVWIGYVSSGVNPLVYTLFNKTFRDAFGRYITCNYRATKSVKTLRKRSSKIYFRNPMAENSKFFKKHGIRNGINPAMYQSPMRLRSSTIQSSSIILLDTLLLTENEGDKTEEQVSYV
Sequence of Sigma non-opioid intracellular receptor 1 (Homo sapiens) (Q99720 whole entry): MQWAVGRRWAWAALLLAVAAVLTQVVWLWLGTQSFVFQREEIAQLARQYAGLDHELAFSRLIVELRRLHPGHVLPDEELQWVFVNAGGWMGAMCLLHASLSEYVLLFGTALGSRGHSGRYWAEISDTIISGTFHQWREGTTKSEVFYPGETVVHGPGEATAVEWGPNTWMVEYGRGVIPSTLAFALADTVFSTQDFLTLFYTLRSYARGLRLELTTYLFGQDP
Sequence of Histamine H4 receptor (Homo sapiens) (Q9H3N8 whole entry): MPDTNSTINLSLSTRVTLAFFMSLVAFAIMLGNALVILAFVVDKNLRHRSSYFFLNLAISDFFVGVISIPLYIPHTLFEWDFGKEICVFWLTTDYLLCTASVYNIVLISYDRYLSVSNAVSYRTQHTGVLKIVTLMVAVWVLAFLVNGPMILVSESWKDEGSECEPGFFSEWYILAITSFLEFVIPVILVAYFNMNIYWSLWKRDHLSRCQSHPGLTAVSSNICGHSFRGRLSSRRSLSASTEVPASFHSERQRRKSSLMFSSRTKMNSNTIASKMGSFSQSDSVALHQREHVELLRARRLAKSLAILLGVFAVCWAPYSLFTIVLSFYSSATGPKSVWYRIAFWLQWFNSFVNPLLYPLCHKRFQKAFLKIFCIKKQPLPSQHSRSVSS
Sequence of 5-hydroxytryptamine receptor 5A (Homo sapiens) (P47898 whole entry): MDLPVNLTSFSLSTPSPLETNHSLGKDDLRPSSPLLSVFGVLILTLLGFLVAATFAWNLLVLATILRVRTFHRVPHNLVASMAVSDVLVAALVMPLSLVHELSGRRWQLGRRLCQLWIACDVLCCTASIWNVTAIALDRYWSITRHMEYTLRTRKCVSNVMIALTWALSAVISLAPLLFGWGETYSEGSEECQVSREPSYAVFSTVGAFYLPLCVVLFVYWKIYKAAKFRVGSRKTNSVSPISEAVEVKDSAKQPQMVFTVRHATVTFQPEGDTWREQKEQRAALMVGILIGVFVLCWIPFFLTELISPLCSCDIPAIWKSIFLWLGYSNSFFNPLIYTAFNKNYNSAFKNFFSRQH
Sequence of Sigma intracellular receptor 2 (Q5BJF2 whole entry): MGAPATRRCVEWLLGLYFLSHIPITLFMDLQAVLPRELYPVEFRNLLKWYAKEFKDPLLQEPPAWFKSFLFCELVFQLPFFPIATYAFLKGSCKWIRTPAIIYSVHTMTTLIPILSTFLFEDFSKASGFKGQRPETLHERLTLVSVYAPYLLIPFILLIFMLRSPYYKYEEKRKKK
Sequence of D(2) dopamine receptor (Homo sapiens) (P14416 whole entry): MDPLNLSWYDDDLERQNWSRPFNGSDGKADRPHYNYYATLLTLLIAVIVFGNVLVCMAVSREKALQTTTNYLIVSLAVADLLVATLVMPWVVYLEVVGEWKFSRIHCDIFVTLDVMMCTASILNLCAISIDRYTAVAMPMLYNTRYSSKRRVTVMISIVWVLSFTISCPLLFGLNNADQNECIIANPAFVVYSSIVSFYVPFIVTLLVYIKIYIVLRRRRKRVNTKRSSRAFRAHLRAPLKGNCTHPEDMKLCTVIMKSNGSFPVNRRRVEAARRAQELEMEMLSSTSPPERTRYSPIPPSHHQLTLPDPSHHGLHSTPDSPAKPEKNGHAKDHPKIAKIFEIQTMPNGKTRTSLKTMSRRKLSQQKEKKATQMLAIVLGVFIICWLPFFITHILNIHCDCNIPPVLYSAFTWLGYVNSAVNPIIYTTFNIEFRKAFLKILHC
Sequence of Sodium-dependent noradrenaline transporter (Homo sapiens) (P23975 whole entry): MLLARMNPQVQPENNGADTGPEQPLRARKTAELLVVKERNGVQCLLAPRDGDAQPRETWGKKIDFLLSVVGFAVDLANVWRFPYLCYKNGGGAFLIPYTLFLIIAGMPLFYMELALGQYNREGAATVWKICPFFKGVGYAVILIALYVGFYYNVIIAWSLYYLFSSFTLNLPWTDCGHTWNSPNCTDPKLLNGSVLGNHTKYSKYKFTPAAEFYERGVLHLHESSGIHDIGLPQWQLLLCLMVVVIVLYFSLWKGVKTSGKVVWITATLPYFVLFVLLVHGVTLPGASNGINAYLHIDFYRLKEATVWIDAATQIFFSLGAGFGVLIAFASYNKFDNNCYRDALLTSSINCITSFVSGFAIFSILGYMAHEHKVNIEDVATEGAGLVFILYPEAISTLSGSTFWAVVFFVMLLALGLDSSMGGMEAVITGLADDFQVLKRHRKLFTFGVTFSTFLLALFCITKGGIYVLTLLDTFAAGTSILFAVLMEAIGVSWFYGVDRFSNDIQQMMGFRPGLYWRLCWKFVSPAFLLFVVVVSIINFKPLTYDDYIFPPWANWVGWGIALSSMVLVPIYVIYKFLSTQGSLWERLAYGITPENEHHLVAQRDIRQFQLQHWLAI
Sequence of Adenosine receptor A2a (Homo sapiens) (P29274 whole entry): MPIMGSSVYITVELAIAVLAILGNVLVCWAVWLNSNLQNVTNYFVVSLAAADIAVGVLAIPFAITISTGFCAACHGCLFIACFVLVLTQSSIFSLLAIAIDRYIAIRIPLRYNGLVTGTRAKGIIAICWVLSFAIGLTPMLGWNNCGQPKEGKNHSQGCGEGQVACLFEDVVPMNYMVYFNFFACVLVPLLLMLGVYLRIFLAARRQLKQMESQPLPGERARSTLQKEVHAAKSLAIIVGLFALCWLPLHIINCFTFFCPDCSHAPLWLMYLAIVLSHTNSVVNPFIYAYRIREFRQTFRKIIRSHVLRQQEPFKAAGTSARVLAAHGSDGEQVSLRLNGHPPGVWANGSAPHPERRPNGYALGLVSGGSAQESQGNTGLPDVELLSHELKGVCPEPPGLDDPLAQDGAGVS
Sequence of Acetylcholinesterase (Homo sapiens) (P22303 whole entry): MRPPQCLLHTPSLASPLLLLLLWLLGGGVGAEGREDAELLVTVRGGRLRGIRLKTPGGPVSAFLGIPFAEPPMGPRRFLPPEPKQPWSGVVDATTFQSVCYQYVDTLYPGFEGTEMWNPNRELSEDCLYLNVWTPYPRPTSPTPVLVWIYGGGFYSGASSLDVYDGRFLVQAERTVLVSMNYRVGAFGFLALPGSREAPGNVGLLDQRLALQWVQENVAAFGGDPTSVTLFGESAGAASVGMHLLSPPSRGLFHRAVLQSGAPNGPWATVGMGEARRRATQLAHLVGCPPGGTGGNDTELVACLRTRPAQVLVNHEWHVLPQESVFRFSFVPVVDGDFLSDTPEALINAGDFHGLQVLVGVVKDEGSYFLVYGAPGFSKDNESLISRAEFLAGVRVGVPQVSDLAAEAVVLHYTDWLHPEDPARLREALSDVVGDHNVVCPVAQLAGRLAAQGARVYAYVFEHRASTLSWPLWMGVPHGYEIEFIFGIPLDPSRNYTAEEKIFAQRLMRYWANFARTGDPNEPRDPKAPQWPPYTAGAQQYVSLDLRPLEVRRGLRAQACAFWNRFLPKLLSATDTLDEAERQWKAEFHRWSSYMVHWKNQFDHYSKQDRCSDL
Sequence of Sodium-dependent serotonin transporter (Homo sapiens) (P31645 whole entry, looked up): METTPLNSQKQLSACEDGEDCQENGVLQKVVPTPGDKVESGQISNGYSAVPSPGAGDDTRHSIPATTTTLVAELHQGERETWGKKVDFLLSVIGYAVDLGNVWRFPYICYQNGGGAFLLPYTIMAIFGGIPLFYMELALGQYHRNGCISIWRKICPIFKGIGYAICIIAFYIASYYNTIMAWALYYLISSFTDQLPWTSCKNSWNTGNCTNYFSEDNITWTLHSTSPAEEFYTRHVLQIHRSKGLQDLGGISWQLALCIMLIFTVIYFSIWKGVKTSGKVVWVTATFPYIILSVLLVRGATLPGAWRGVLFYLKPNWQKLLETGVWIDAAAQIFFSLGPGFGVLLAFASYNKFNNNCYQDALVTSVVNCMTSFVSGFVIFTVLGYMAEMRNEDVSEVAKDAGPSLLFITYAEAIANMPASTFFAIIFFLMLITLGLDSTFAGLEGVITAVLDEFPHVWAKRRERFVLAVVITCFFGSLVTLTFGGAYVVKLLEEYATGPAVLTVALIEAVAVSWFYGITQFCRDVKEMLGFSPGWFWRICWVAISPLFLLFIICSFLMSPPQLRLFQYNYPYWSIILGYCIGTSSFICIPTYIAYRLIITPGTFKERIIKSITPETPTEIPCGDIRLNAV
Sequence of Leukotriene C4 synthase (Cavia porcellus) (A6XA80 whole entry): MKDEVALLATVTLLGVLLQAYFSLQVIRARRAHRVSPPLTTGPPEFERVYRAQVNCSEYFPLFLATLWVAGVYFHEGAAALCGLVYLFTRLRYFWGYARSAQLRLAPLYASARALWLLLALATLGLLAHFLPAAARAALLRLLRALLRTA

One may read the inhibition as the change of the read-out against control, counted positive when it falls. `O=C1NCCCC1N1Cc2cc(C3CCN(C(=O)CCCCCN4CCC(c5ccc(Oc6nn7cnnc7c7c6CCCC7)cc5)CC4)CC3)ccc2C1=O` (stereo unspecified): the inhibition was 0% in series [1]; 76.4% in [2]; 15% in [3]; 6% in series [4]; 14% in [5]; 28.4% in [6]. The inhibition is 57% in [7]; 27.5% in series [8]; 76% against D(3) dopamine receptor; 7.19% in series [9]; 44% in [10]; -3.44% in series [11]. The inhibition in [12] was 22%; in [14], 11.9%; in series [15] it was -7.97%; in series [16], 16%; in [17], 6%; in [18] it was 15%. In addition, the inhibition was 21.7% in [19], 22% in [20], 38% in [21] and 20% in series [22]. For the same molecule, the inhibition at 10 µM in series [13] stood at 30%.
Regarding `O=C1CCC(N2Cc3cc(C4CCN(C(=O)CCCCCN5CCC(c6ccc(Oc7nn8cnnc8c8c7CCCC8)cc6)CC5)CC4)ccc3C2=O)C(=O)N1` (stereo unspecified), the inhibition in series [1] was 21%; in series [2] it was 75.9%; in series [3], 28%; in [4], 6%; in series [5] it was 10.1%; in [6], 28.9%. In addition, the inhibition was 70% in series [7]; 47.9% in [8]; 90% on D(3) dopamine receptor; 27.8% in series [9]; 40% in series [10]; -8.84% in series [11]. Moreover, the inhibition in series [12] is 32%; in [14], 14.3%; in series [15] it was 19.9%; in series [16] it was 19%; in [17], 25%; in [18] it was 2%. The inhibition in [19] was 20.9%; in series [20] it was 22%; in series [21] it was 45%; in series [22], 13%. Moreover, in [13], the inhibition at 10 µM turned out to be 34%.
